Test results: patent US20220204473A1, “COMPOUND AS IRAK INHIBITOR” (SHANGHAI MEIYUE BIOTECH DEVELOPMENT CO., LTD., priority 2018, published 2022)
Read-outs that look alike come from different tables or passages of the source.

Key:
human IRAK4 = target: T1, human IRAK4 (Homo sapiens, UniProt Q9NWZ3); assay: IRAK4 MSA (Mobility-Shift Assay) at Km ATP; assay type: biochemical; details: GST-IRAK4 1 nM, ATP 37 μM (Km); read-out: IC50 for inhibiting human IRAK4 kinase
T1 construct: purchased Cama (so in the source)
T1 sequence (Q9NWZ3 1-460): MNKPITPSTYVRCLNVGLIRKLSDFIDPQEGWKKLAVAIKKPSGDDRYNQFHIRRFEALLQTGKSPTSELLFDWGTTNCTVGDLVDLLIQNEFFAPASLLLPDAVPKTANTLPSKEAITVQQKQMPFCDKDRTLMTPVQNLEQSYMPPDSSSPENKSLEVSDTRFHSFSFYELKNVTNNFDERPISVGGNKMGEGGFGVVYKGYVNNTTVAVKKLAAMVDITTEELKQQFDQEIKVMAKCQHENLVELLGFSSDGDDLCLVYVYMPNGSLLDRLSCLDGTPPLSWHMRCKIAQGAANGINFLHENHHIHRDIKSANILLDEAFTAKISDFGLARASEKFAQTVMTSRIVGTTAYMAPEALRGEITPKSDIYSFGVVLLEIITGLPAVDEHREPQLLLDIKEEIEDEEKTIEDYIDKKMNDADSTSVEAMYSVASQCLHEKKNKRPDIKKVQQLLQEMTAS
Method: A recombinant fusion protein of N-terminal GST (glutathione-S-transferase) and human IRAK4 was used as enzyme (GST-IRAK4, kinase IRAK4 (Cama)) at a final concentration of 1 nM; ATP (Sigma) was at a final concentration of 37 μM; the substrates used for the kinase reaction were a 5-FAM (5-carboxyfluorescein)-labeled polypeptide (5-FAM-[…]-COOH) and a substrate peptide FAM-P8 (GL Biochem) at final concentrations of […].
In this assay, 500 μM solutions of the compounds were prepared in 100% DMSO, and serially 4-fold diluted to the 10th concentration gradient with 100% DMSO, followed by a 10-fold dilution in the compound buffer (50 mM HEPES. pH 7.5, 0.00015% Brij-35) to give intermediate dilutions of the compounds at a final concentration of 10 μM-0.04 nM containing 10% DMSO respectively, 5 μL of the dilutions were transferred into a black 384-well plate respectively.
IRAK4 was diluted to 2.5 nM in the kinase buffer (50 mM HEPES, pH 7.5, 0.00015% Brij-35, 2 mM DTT). 10 μL of the IRAK4 dilution was transferred to the 384-well plate and co-incubated with the compound for 10-15 min.
The substrate and ATP were diluted to 12.5 μM and 92.5 μM with reaction buffer (50 mM HEPES, pH 7.5, 0.00015% Brij-35, 10 mM MgCl2), respectively. 10 μL of the dilutions were transferred to a 384-well plate and incubated at 28° C. for 1 h respectively. The reaction was terminated by adding 25 μL of 50 mM EDTA to the 384-well plate.
The inhibition rates of IRAK4 by the compounds were calculated by measuring the rate of phosphorylated substrate using a Caliper EZ Reader (PerkinElmer) and the IC50 values were calculated by XL-fit software.

[1] = PK assay in rat (intravenous injection and oral gavage); assay type: in vivo; details: plasma, male SD rat; for Cmax: read-out: Peak concentration Cmax; for AUC(0-t): read-out: Area under curve AUC0-t; for AUC(0-inf): read-out: Area under curve AUC0-∞; for MRT: read-out: Average retention time MRT; for half-life: read-out: Half life t1/2 (converted)
Method: The rats used for pharmacokinetic study in the example were male SPF-grade SD rats (B&K Universal, Shanghai).
Route of administration: a single dose by oral gavage or intravenous injection
Sampling points: 0.083 h, 0.25 h, 0.5 h, 1 h, 2 h, 4 h, 6 h, 8 h and 24 h after administration
Sample processing: 0.2 mL of venous blood was collected, and let stand on ice before centrifugation to separate plasma (centrifugation conditions: 8000 rpm, 6 min, 4° C.). The separated plasma was stored at −80° C. before analysis.
Internal standard working solution: An appropriate amount of tolbutamide internal standard stock solution at 645,000 ng/mL was added into a volumetric flask, and was diluted to the volume with methanol. The solution was well mixed to give an internal standard working solution with a concentration of 50 ng/mL.
Sample pretreatment: 50 μL of plasma was added into a 1.5-mL centrifuge tube, and added with 250 μL of internal standard solution (methanol of the same volume for the blank control). The solution was well mixed by vortex, and centrifuged for 5 min at 14000 rpm. 200 μL of the supernatant was transferred into a 96-well sample feeding plate, and loaded onto a LC-MS/MS system.
Column: ACQUITY UPLC BEH C18 1.7 μm (50 mm×2.10 mm)
Mobile phase: A: 0.1% aqueous formic acid; B: 0.1% formic acid in acetonitrile
The data processing system was Analyst software (Applied Biosystems, USA, ver 1.5.5).

[2] = tested on: TNF-α release in LPS-induced Balb/c female mice; assay: Inhibition of TNF-α release in LPS-induced Balb/c female mice; assay type: in vivo, mouse; parameters: concentration or dose not given beside the values; details: oral gavage 5 h before LPS induction, serum 1.5 h after stimulation
Method: In the normal control groups, the animals received an intraperitoneal injection of normal saline (10 mL/kg) and in the model groups, the animals received LPS stimulation (Sigma CAT #L2630, i.p., 10 mL/kg, 0.2 mg/kg). During the assay, to the test compounds, DMSO, Solutol and 10 mM PBS were sequentially added to prepare a solution or suspension of required concentration for administration. For the vehicle, DMSO, Solutol and 10 mM PBS were mixed in a volume ratio of 5:15:80. In each of the groups, the animals were administered through oral gavage (10 mL/kg) 5 h before LPS (or saline) stimulation at predetermined doses, and euthanized with CO2 at 1.5 h after the stimulation for cardiac blood collection. The whole blood was not anticoagulated, incubated in wet ice for 1.5 h, and centrifuged at 2000×g at 4° C. for 10 min to separate the serum. The serum was frozen at −80° C. for TNF-α assay. Quantification of the TNF-α was done with TNF-α ELISA kit according to the manufacturer's instruction.

[3] = 1 mg/kg, intravenous injection, 1 mpk
[4] = 2 mg/kg, oral administration, 2 mpk, 5% DMSO + 15% Solutol + 80% Saline

SMILES | IC50 (human IRAK4) [nM] | other results
COc1cc2nn(CCN3CC(F)(F)C3)cc2cc1NC(=O)c1cccc(C(F)(F)F)n1 [MY-004-017] | 36 | 
COc1cc2nn([C@H]3C[C@@H](C(C)(C)O)C3)cc2cc1NC(=O)c1cccc(C(F)(F)F)n1 [MY-004-040] | 13 | 
COc1cc2nn([C@H]3C[C@H](CO)C3)cc2cc1NC(=O)c1cccc(C(F)(F)F)n1 [MY-004-082] | 5 | Cmax ([1]; 1 mg/kg, intravenous injection, 1 mpk, 5% DMSO + 15% Solutol + 80% Saline): 1320 ng/mL; AUC(0-t) [1, 3]: 790 ng·h/mL; AUC(0-inf) [1, 3]: 793 ng·h/mL; MRT [1, 3]: 0.52 h; clearance ([1]; 1 mg/kg, intravenous injection, 1 mpk, read-out: Clearance CL): 21.9 mL/min/kg; half-life [1, 3]: 30.6 min; Vd ([1]; 1 mg/kg, intravenous injection, 1 mpk, read-out: Volume of distribution at steady state VZ): 0.93 L/kg; AUC(0-t) [1, 4]: 416 ng·h/mL; AUC(0-inf) [1, 4]: 424 ng·h/mL; MRT [1, 4]: 2.69 h; bioavailability ([1]; 2 mg/kg, oral administration, 2 mpk, 5% DMSO + 15% Solutol + 80% Saline, read-out: Bioavailability F): 26.3%; half-life [1, 4]: 65.4 min; Cmax [1, 4]: 114 ng/mL; Tmax ([1]; 2 mg/kg, oral administration, 2 mpk, 5% DMSO + 15% Solutol + 80% Saline, read-out: Time to peak tmax): 30 min
COc1cc2nn(C3CC(O)C3)cc2cc1NC(=O)c1cccc(C(F)(F)F)n1 (centres unmarked) [MY-004-084] | 9.5 | 
COc1cc2nn(C3CC(CO)C3)cc2cc1NC(=O)c1cccc(C(F)(F)F)n1 (centres unmarked) [MY-004-090] | 12.3 | 
COc1cc2nn([C@H]3C[C@H](C(C)(C)O)C3)cc2cc1NC(=O)c1cccc(C)n1 [MY-004-093] | 13 | 
COc1cc2nn([C@H]3C[C@H](C(C)(C)O)C3)cc2cc1NC(=O)c1cnc2ccccc2n1 [MY-004-094] | 41 | 
COc1cc2nn([C@H]3C[C@@H](C(=O)OC)C3)cc2cc1NC(=O)c1cccc(C(F)(F)F)n1 [MY-004-099] | 35 | 
COc1cc2nn([C@H]3C[C@H](C(=O)OC)C3)cc2cc1NC(=O)c1cccc(C(F)(F)F)n1 [MY-004-100] | 11 | 
CC(C)(O)c1cc2nn([C@H]3C[C@H](C(C)(C)O)C3)cc2cc1NC(=O)c1cccc(C#N)n1 [MY-004-110] | 48 | 
CN(C)c1cc2nn([C@H]3C[C@H](C(C)(C)O)C3)cc2cc1NC(=O)c1cccc(F)n1 [MY-004-118] | 16.7 | 
COc1cc2nn([C@H]3C[C@H](C(C)(C)O)C3)cc2cc1NC(=O)c1cccc(F)n1 [MY-004-119] | 14 | 
COc1cc2nn([C@H]3CC[C@@H](O)CC3)cc2cc1NC(=O)c1cccc(C(F)(F)F)n1 [MY-004-127-2] | 4.3 | 
COc1cc2nn(C3CC(C)(O)C3)cc2cc1NC(=O)c1cccc(C(F)(F)F)n1 (centres unmarked) [MY-004-128] | 6.6 | 
CC(C)(O)[C@H]1C[C@H](n2cc3cc(NC(=O)c4cccc(C(F)(F)F)n4)c(-c4ccccn4)cc3n2)C1 [MY-004-146] | 6.4 | 
CN(C)c1cc2nn([C@H]3CC[C@@H](O)CC3)cc2cc1NC(=O)c1cccc(C(F)(F)F)n1 [MY-004-154] | 1.6 | Inhibition rate of TNF-α [2]: 87.82%
CN(C)c1cc2nn([C@H]3CC[C@](C)(O)CC3)cc2cc1NC(=O)c1cccc(C(F)(F)F)n1 [MY-004-167] | 2.7 | 
COc1cc2nn(C3CC(OC)C3)cc2cc1NC(=O)c1cccc(C(F)(F)F)n1 (centres unmarked) [MY-004-168] | 6.3 | 
O=C(Nc1cc2cn([C@H]3CC[C@H](O)CC3)nc2cc1OCC1CC1)c1cccc(C(F)(F)F)n1 [MY-004-217] | 2.2 | 
O=C(Nc1cc2cn([C@H]3CC[C@@H](O)CC3)nc2cc1OCC1CC1)c1cccc(C(F)(F)F)n1 [MY-004-218] | 5.1 | 
C[C@]1(O)CC[C@@H](n2cc3cc(NC(=O)c4cccc(C(F)(F)F)n4)c(-n4cccn4)cc3n2)CC1 [MY-004-227] | 1.7 | 
C[C@]1(O)CC[C@H](n2cc3cc(NC(=O)c4cccc(C(F)(F)F)n4)c(-n4cccn4)cc3n2)CC1 [MY-004-228] | 2 | Inhibition rate of TNF-α [2]: 88.46%
CC(C)(O)[C@H]1C[C@H](n2cc3cc(NC(=O)c4cccc(C(F)(F)F)n4)c(-n4cc(C#N)cn4)cc3n2)C1 [MY-004-229] | 8.4 | 
CC(C)(O)c1cc2nn([C@H]3CC[C@H](O)CC3)cc2cc1NC(=O)c1cccc(C(F)(F)F)n1 [MY-004-322] | 2.4 | 
CC(C)(O)c1cc2nn([C@H]3CC[C@@H](O)CC3)cc2cc1NC(=O)c1cccc(C(F)(F)F)n1 [MY-004-326] | 6.9 | 
